Assay results as given in US20250353855A1, “HETEROCYCLIC AND HETEROARYL COMPOUNDS FOR TREATING HUNTINGTON'S DISEASE” (PTC THERAPEUTICS, INC., priority 2022, published 2025).

System: Endogenous Huntingtin Protein
Assay: Endogenous Huntingtin Protein Assay (ELISA-based MSD electrochemiluminescence)
Type: cell-based
Details: MSD plates coated with MW1 (expanded polyglutamine) or MAB2166 capture antibody; lysates
Description: Compounds of Formula (T) were tested using the Meso Scale Discovery (MSD) Assay provided in International Application No. PCT/US2016/066042, filed on Dec. 11, 2016 and claiming priority to U.S. Provisional Application 62/265,652 filed on Dec. 10, 2015, the entire contents of which are incorporated herein by reference.
The Endogenous Huntingtin Protein assay used in Example 1 was developed using the ELISA-based MSD electrochemiluminescence assay platform.
Meso Scale Discovery (MSD) 96-well or 384-well plates were coated overnight at 4° C. with MW1 (expanded polyglutamine) or MAB2166 monoclonal antibody (for capture) at a concentration of 1 μg/mL in PBS (30 μL per well). Plates were then washed three times with 300 μL wash buffer (0.05% Tween-20 in PBS) and blocked (100 μL blocking buffer; 5% BSA in PBS) for 4-5 hours at room temperature with rotational shaking and then washed three times with wash buffer.
Samples (25 μL) were transferred to the antibody-coated MSD plate and incubated overnight at 4° C. After removal of the lysates, the plate was washed three times with wash buffer, and 25 μL of #5656S (Cell signaling; rabbit monoclonal) secondary antibody (diluted to 0.25 μg/mL in 0.05% Tween-20 in blocking buffer) was added to each well and incubated with shaking for 1 Hour at room temperature. Following incubation with the secondary antibody, the wells were rinsed with wash buffer after which 25 μL of goat anti-rabbit SULFO TAG secondary detection antibody (required aspect of the MSD system) (diluted to 0.25 μg/mL in 0.05% Tween-20 in blocking buffer) was added to each well and incubated with shaking for 1 hour at room temperature. After rinsing three times with wash buffer, 150 μL of read buffer T with surfactant (MSD) were added to each empty well, and the plate was imaged on a SI 6000 imager (MSD) according to manufacturers' instructions provided for 96- or 384-well plates.

Row | Compound | IC50
1 | Cc1ncc2cc(-c3cc4ccn([C@H]5CC(C)(C)NC(C)(C)[C@H]5F)c4nn3)c(O)cc2n1 [Cpd 15, 6-{7-[(3S,4S)-3-fluoro-2,2,6,6-tetramethylpiperidin-4-yl]-7H-pyrrolo[2,3-c]pyridazin-3-yl}-2-methylquinazolin-7-ol] | < 100 nM
2 | Cc1nc2cc(O)c(-c3cc4ccn([C@@H]5CCNC(C)(C)[C@@H]5F)c4nn3)cc2s1 [Cpd 19, 6-{7-[(3R,4R)-3-fluoro-2,2-dimethylpiperidin-4-yl]-7H-pyrrolo[2,3-c]pyridazin-3-yl}-2-methyl-1,3-benzothiazol-5-ol] | < 100 nM
3 | Cc1nc2cc(O)c(-c3cc4ccn([C@@H]5CCNC(C)(C)[C@@H]5F)c4nn3)cc2o1 [Cpd 20, 6-{7-[(3R,4R)-3-fluoro-2,2-dimethylpiperidin-4-yl]-7H-pyrrolo[2,3-c]pyridazin-3-yl}-2-methyl-1,3-benzoxazol-5-ol] | < 100 nM
4 | COc1nc2cc(O)c(-c3cc4ccn([C@H]5CC(C)(C)NC(C)(C)[C@H]5F)c4nn3)cc2o1 [Cpd 25, 6-{7-[(3S,4S)-3-fluoro-2,2,6,6-tetramethylpiperidin-4-yl]-7H-pyrrolo[2,3-c]pyridazin-3-yl}-2-methoxy-1,3-benzoxazol-5-ol] | < 100 nM
5 | COc1cnc2cc(-c3cc4ccn([C@H]5CC(C)(C)NC(C)(C)[C@H]5F)c4nn3)c(O)cc2n1 [Cpd 33, 7-{7-[(3S,4S)-3-fluoro-2,2,6,6-tetramethylpiperidin-4-yl]-7H-pyrrolo[2,3-c]pyridazin-3-yl}-3-methoxyquinoxalin-6-ol] | < 100 nM

Same assay, conditions: MSD plates coated with MW1 (expanded polyglutamine) or MAB2166 capture antibody; lysates; read-out: IC50

Row | Compound | IC50
6 | Cc1nc2cc(O)c(-c3cc4ncn([C@H]5CC(C)(C)NC6(CC6)C5)c4nn3)cc2s1 [Cpd 11, 6-{7-[(7S)-5,5-dimethyl-4-azaspiro[2.5]octan-7-yl]-7H-imidazo[4,5-c]pyridazin-3-yl}-2-methyl-1,3-benzothiazol-5-ol] | < 100 nM
7 | Cc1nc2cc(O)c(-c3cc4nnn(C5CC(C)(C)NC6(CC6)C5)c4nn3)cc2s1 (stereo not shown) [Cpd 12, 6-[3-(5,5-dimethyl-4-azaspiro[2.5]octan-7-yl)-3H-[1,2,3]triazolo[4,5-c]pyridazin-6-yl]-2-methyl-1,3-benzothiazol-5-ol] | < 100 nM
8 | CCc1nc2cc(-c3cc4ccn([C@H]5CC(C)(C)NC(C)(C)[C@H]5F)c4nn3)c(O)cc2o1 [Cpd 13, 2-ethyl-5-{7-[(3S,4S)-3-fluoro-2,2,6,6-tetramethylpiperidin-4-yl]-7H-pyrrolo[2,3-c]pyridazin-3-yl}-1,3-benzoxazol-6-ol] | < 100 nM
9 | Cc1nc2cc(-c3cc4ncn([C@H]5CC(C)(C)NC6(CC6)C5)c4nn3)c(O)cc2o1 [Cpd 23, 5-{7-[(7S)-5,5-dimethyl-4-azaspiro[2.5]octan-7-yl]-7H-imidazo[4,5-c]pyridazin-3-yl}-2-methyl-1,3-benzoxazol-6-ol] | 100 to 500 nM
10 | CC1(C)C[C@H](n2ccc3cc(-c4cc5nc(C(F)(F)F)oc5cc4O)nnc32)[C@H](F)C(C)(C)N1 [Cpd 24, 5-{7-[(3S,4S)-3-fluoro-2,2,6,6-tetramethylpiperidin-4-yl]-7H-pyrrolo[2,3-c]pyridazin-3-yl}-2-(trifluoromethyl)-1,3-benzoxazol-6-ol] | 100 to 500 nM
11 | Cc1nc2cc(O)c(-c3cc4nnn(C5CC(C)(C)NC(C)(C)C5)c4nn3)cc2s1 [Cpd 27, 2-methyl-6-[3-(2,2,6,6-tetramethylpiperidin-4-yl)-3H-[1,2,3]triazolo[4,5-c]pyridazin-6-yl]-1,3-benzothiazol-5-ol] | < 100 nM
12 | CC1(C)C[C@H](n2ccc3cc(-c4cc5ccccc5cc4O)nnc32)[C@H](F)C(C)(C)N1 [Cpd 28, 3-{7-[(3S,4S)-3-fluoro-2,2,6,6-tetramethylpiperidin-4-yl]-7H-pyrrolo[2,3-c]pyridazin-3-yl}naphthalen-2-ol] | < 100 nM
13 | CC1(C)C[C@H](n2ccc3cc(-c4cc5oc(=O)[nH]c5cc4O)nnc32)[C@H](F)C(C)(C)N1 [Cpd 36, 6-{7-[(3S,4S)-3-fluoro-2,2,6,6-tetramethylpiperidin-4-yl]-7H-pyrrolo[2,3-c]pyridazin-3-yl}-5-hydroxy-1,3-benzoxazol-2(3H)-one] | < 100 nM

The next lines start with the values.

Row | IC50 | Compound
14 | < 100 nM | CCc1nc2cc(-c3cc4ccn([C@H]5CC(C)(C)NC(C)(C)[C@H]5F)c4nn3)c(O)cc2s1 [Cpd 14, 2-ethyl-5-{7-[(3S,4S)-3-fluoro-2,2,6,6-tetramethylpiperidin-4-yl]-7H-pyrrolo[2,3-c]pyridazin-3-yl}-1,3-benzothiazol-6-ol]
15 | < 100 nM | CC1(C)C[C@H](n2ccc3cc(-c4cc5cccnc5cc4O)nnc32)[C@H](F)C(C)(C)N1 [Cpd 16, 6-{7-[(3S,4S)-3-fluoro-2,2,6,6-tetramethylpiperidin-4-yl]-7H-pyrrolo[2,3-c]pyridazin-3-yl}quinolin-7-ol]
16 | < 100 nM | CC1(C)C[C@H](n2ccc3cc(-c4cc5ncccc5cc4O)nnc32)[C@H](F)C(C)(C)N1 [Cpd 17, 7-{7-[(3S,4S)-3-fluoro-2,2,6,6-tetramethylpiperidin-4-yl]-7H-pyrrolo[2,3-c]pyridazin-3-yl}quinolin-6-ol]
17 | < 100 nM | Cn1ccc(=O)c2cc(-c3cc4ccn([C@H]5CC(C)(C)NC(C)(C)[C@H]5F)c4nn3)c(O)cc21 [Cpd 18, 6-{7-[(3S,4S)-3-fluoro-2,2,6,6-tetramethylpiperidin-4-yl]-7H-pyrrolo[2,3-c]pyridazin-3-yl}-7-hydroxy-1-methylquinolin-4(1H)-one]
18 | 100 to 500 nM | CC1(C)C[C@H](n2ccc3cc(-c4cc5c(Cl)ccnc5cc4O)nnc32)[C@H](F)C(C)(C)N1 [Cpd 21, 4-chloro-6-{7-[(3S,4S)-3-fluoro-2,2,6,6-tetramethylpiperidin-4-yl]-7H-pyrrolo[2,3-c]pyridazin-3-yl}quinolin-7-ol]
19 | < 100 nM | Cn1c(=O)cnc2cc(-c3cc4ccn([C@H]5CC(C)(C)NC(C)(C)[C@H]5F)c4nn3)c(O)cc21 [Cpd 26, 6-{7-[(3S,4S)-3-fluoro-2,2,6,6-tetramethylpiperidin-4-yl]-7H-pyrrolo[2,3-c]pyridazin-3-yl}-7-hydroxy-1-methylquinoxalin-2(1H)-one]
20 | < 100 nM | CC1(C)C[C@H](n2ccc3cc(-c4cc5ccncc5cc4O)nnc32)[C@H](F)C(C)(C)N1 [Cpd 29, 6-{7-[(3S,4S)-3-fluoro-2,2,6,6-tetramethylpiperidin-4-yl]-7H-pyrrolo[2,3-c]pyridazin-3-yl}isoquinolin-7-ol]
21 | < 100 nM | Cc1cnc2cc(-c3cc4ccn([C@H]5CC(C)(C)NC(C)(C)[C@H]5F)c4nn3)c(O)cc2c1 [Cpd 30, 7-{7-[(3S,4S)-3-fluoro-2,2,6,6-tetramethylpiperidin-4-yl]-7H-pyrrolo[2,3-c]pyridazin-3-yl}-3-methylquinolin-6-ol]
22 | < 100 nM | Cc1ccc2cc(O)c(-c3cc4ccn([C@H]5CC(C)(C)NC(C)(C)[C@H]5F)c4nn3)cc2n1 [Cpd 31, 7-{7-[(3S,4S)-3-fluoro-2,2,6,6-tetramethylpiperidin-4-yl]-7H-pyrrolo[2,3-c]pyridazin-3-yl}-2-methylquinolin-6-ol]
23 | < 100 nM | Cc1ccc2cc(-c3cc4ccn([C@H]5CC(C)(C)NC(C)(C)[C@H]5F)c4nn3)c(O)cc2n1 [Cpd 32, 6-{7-[(3S,4S)-3-fluoro-2,2,6,6-tetramethylpiperidin-4-yl]-7H-pyrrolo[2,3-c]pyridazin-3-yl}-2-methylquinolin-7-ol]
24 | < 100 nM | Cc1cnc2cc(O)c(-c3cc4ccn([C@H]5CC(C)(C)NC(C)(C)[C@H]5F)c4nn3)cc2c1 [Cpd 35, 6-{7-[(3S,4S)-3-fluoro-2,2,6,6-tetramethylpiperidin-4-yl]-7H-pyrrolo[2,3-c]pyridazin-3-yl}-3-methylquinolin-7-ol]
25 | < 100 nM | Cn1nc2cc(O)c(-c3cc4ccn([C@H]5CC(C)(C)NC(C)(C)[C@H]5F)c4nn3)cc2n1 [Cpd 37, 6-{7-[(3S,4S)-3-fluoro-2,2,6,6-tetramethylpiperidin-4-yl]-7H-pyrrolo[2,3-c]pyridazin-3-yl}-2-methyl-2H-benzotriazol-5-ol]
26 | < 100 nM | Cn1cc2cc(O)c(-c3cc4ccn([C@H]5CC(C)(C)NC(C)(C)[C@H]5F)c4nn3)cc2n1 [Cpd 38, 6-{7-[(3S,4S)-3-fluoro-2,2,6,6-tetramethylpiperidin-4-yl]-7H-pyrrolo[2,3-c]pyridazin-3-yl}-2-methyl-2H-indazol-5-ol]
27 | < 100 nM | Cc1ncc2cc(O)c(-c3cc4ccn([C@H]5CC(C)(C)NC(C)(C)[C@H]5F)c4nn3)cc2n1 [Cpd 39, 7-{7-[(3S,4S)-3-fluoro-2,2,6,6-tetramethylpiperidin-4-yl]-7H-pyrrolo[2,3-c]pyridazin-3-yl}-2-methylquinazolin-6-ol]
28 | < 100 nM | CC1(C)C[C@H](n2ccc3cc(-c4cc5ncc(F)cc5cc4O)nnc32)[C@H](F)C(C)(C)N1 [Cpd 40, 3-fluoro-7-{7-[(3S,4S)-3-fluoro-2,2,6,6-tetramethylpiperidin-4-yl]-7H-pyrrolo[2,3-c]pyridazin-3-yl}quinolin-6-ol]
